Source: patent publication US20200261534A1, “NEW TREATMENTS OF MULTIPLE MYELOMA” (priority 2017, published 2020)
Read-outs that look alike come from different tables or passages of the source. Starred links: 1 amine or outer side, 2 acyl side, 3 side chain; linkers in the order of their positions; H or OH if unused. Positions of bridges follow the written chain, without caps; N, C: chain ends. Non-standard residues stand in square brackets, D forms with d. Residues, ends and D or L forms follow the SMILES beside them. ξ: configuration not given here. ξαMeNle(6-ylidene) = CC(CCCC=[*:3])(N[*:1])C(=O)[*:2]; X1 = CC(CCCCCCC=[*:3])(N[*:1])C(=O)[*:2]

Columns and labels:
Assay type in all cases: cell-based
[1] = system: MM.1S, B Lymphoblast (multiple myeloma); experiment: MTT viability assay, MM.1S
Protocol: MM.1S, B Lymphoblast (multiple myeloma), ATCC: CRL-2974
(§1) Cell lines A549, MCF-7 and RAMOS were cultured in incubator under CO2 (6%) at 37° C. in DMEM high glucose (Dulbecco's Modified Eagle Solution, Gibco-BRL 31966-21) medium with 10% fetal bovine serum inactivated (FBS) (Gibco-BRL 10106-169). Cell lines HL-60 and MM.1S were cultured in incubator at 37° C. in RPMI-1640 (Sigma R8758) medium with 10% of fetal bovine serum inactivated (FBS) and 2 mM glutamine (Sigma G7513). Cell lines BJ were cultured in incubator under CO2 (6%) at 37° C. in Eagle's Minimum Essential Medium (Sigma, M-2279) with 10% fetal bovine serum inactivated (FBS) (Gibco-BRL 10106-169).
(§2) During the amplification step and the assays adherent cells were rinsed with DPBS (Dulbecco's Phosphate Buffered Saline, Sigma D1283) three times and afterward treated for 5 minutes with trypsin ([…]) (Gibco-BRL, 15400054) in solution of DPBS at 37° C., and, once detached, transferred in the culturing medium. No-adherent cells were centrifuged and transferred in the culturing medium. Cells were counted in a Neubauer chamber after labelling with Tripan-Blue.
Cells were seeded at a density of 10000 cells/well in 100 μl of medium in 96 well plates. After 24 h, the compounds to be tested were added to calculate the dose/response curve at the starting concentration of 100 μM with serial dilutions (1:1). Controls are the untreated cells. Each experiment was performed in triplicate.
(§3) Cells were incubated with the compounds at the indicated concentrations during 24-72 h in incubator under CO2 atmosphere at 37° C. Then, cell viability was measured by means of MTT (3-(4,5-dimethylthiazol-2-yl)-2,5-diphenyltetrazolium bromide) assay. Stock solution of MTT (475989 Calbiochem) was 5 mg/ml in PBS. 1×.10 μl/well of MTT solution were added and the plate was incubated for 3-4 hr. The medium was discarded and 100 μl of extracting buffer (PBS 1×, 15% SDS, 50% […] N,N-Dimethylformamide, pH 4.7) were added to each well. Plates were incubated for 16 h at room temperature under orbital shaking. Absorbance at 570 nm was finally measured. As negative control (experiment noise) 3 wells were treated with 20 μl/well of a solution of SDS 10% in H2O.
(§4) Data analysis was performed calculating the percentage of cell viability normalized vs. the values of negative control, which was considered equal to 100%. The dose/response curve was fitted through the sigmoidal equation dose-response (variable slope) and the IC50 values were calculated as follow:
Y=Bottom+(Top−Bottom)/(1+10^{[(LogIC50−X)*HillSlope]},
All cell lines were cultured in incubator at 37° C. in RPMI-1640 (Sigma R8758) medium with 10% of fetal bovine serum inactivated (FBS) and 2 mM glutamine (Sigma G7513). During the amplification step cells were centrifuged and transferred into the culturing medium. Cells were counted in a Neubauer chamber after labelling with Tripan-Blue.
as §3, with “peptidomimetic compound (S09)” for “compounds”
Cell lines A549 and MBA-MD231 were cultured in incubator under CO2 (6%) at 37° C. in DMEM high glucose (Dulbecco's Modified Eagle Solution, Gibco-BRL 31966-21) medium with 10% fetal bovine serum inactivated (FBS) (Gibco-BRL 10106-169). […]

[2] = system: A549, epithelial (lung cancer); experiment: MTT viability assay, A549
Protocol: A549, epithelial (lung cancer), ATCC: CCL-185
as §1
as §2, with “Tripan-Blue. […]” for “Tripan-Blue.”
as §3
as §4, with “follow: […]” for “follow:”

[3] = system: RAMOS, B lymphocyte (Burkitt's Lymphoma); experiment: MTT viability assay, RAMOS
Protocol: RAMOS, B lymphocyte (Burkitt's Lymphoma), ATCC: CRL-1596 […] During the amplification step and the assays adherent cells were rinsed with DPBS (Dulbecco's Phosphate Buffered Saline, Sigma D1283) three times and afterward treated for 5 minutes with trypsin ([…]) (Gibco-BRL, 15400054) in solution of DPBS at 37° C., and, once detached, transferred in the culturing medium. No-adherent cells were centrifuged and transferred in the culturing medium. Cells were counted in a Neubauer chamber after labelling with Tripan-Blue. […] Cells were seeded at a density of 10000 cells/well in 100 μl of medium in 96 well plates. […] Controls are the untreated cells. Each experiment was performed in triplicate. Cells were incubated with the compounds at the indicated concentrations during 24-72 h in incubator under CO2 atmosphere at 37° C. […] Stock solution of MTT (475989 Calbiochem) was 5 mg/ml in PBS. 1×.10 μl/well of MTT solution were added and the plate was incubated for 3-4 hr. […] Plates were incubated for 16 h at room temperature under orbital shaking. Absorbance at 570 nm was finally measured. […] The dose/response curve was fitted through the sigmoidal equation dose-response (variable slope) and the IC50 values were calculated as follow: Y=Bottom+(Top−Bottom)/(1+10^{[(LogIC50−X)*HillSlope]},

## CC[C@H](C)[C@H](NC(=O)[C@H](Cc1ccc(O)cc1)NC(=O)[C@H](C)NC(=O)C1(C)CCCC=CCCCCCCC(C)(NC(=O)[C@H](CCCCN)NC(=O)[C@@H]2CCCN2C(=O)[C@H](C)N)C(=O)N[C@@H](C(C)C)C(=O)N[C@@H]([C@@H](C)CC)C(=O)N[C@@H](Cc2ccccc2)C(=O)N[C@@H](CCCCN)C(=O)N[C@@H](CCCCN)C(=O)N[C@@H](C)C(=O)N1)C(=O)N[C@@H](CC(C)C)C(=O)N[C@@H](CO)C(=O)O (some centres unmarked) [S14, APKXVIFKKAXAYILS—OH] (H-APK[X1]VIFKKA[ξαMeNle(6-ylidene)]AYILS-OH; staple 4-11; N-terminus assumed)
[1]
  IC50: 6.6 ± 0.9 µM
[1]; 24 h
  IC50: 7 µM
[1]; 72 h
  IC50: 7 µM
[2]
  IC50: 9.1 ± 0.8 µM
[3]
  IC50: 55 µM

## CC[C@H](C)[C@@H]1NC(=O)[C@H](Cc2ccc(O)cc2)NC(=O)[C@H](C)NC(=O)[C@H]([C@@H](C)O)NC(=O)[C@H](C)NC(=O)[C@H](CCCCN)NC(=O)C(C)(NC(=O)[C@H](CC(C)C)NC(=O)[C@@H](NC(=O)[C@@H](NC(=O)[C@@H](NC(=O)[C@H](CCCCN)NC(=O)[C@@H]2CCCN2C(=O)[C@H](C)N)C(C)C)C(C)C)[C@@H](C)CC)CCCCCCC=CCCCC(C)(C(=O)N[C@@H](CO)C(=O)O)NC1=O (some centres unmarked) [IDP-S18, APKVVILXKATAYIXS] (H-APKVVIL[X1]KATAYI[ξαMeNle(6-ylidene)]S-OH; staple 8-15; N-terminus and C-terminus assumed)
[1]
  IC50: > 100 µM
[2]
  IC50: > 100 µM
[3]
  IC50: > 100 µM

## CC[C@H](C)[C@H](NC(=O)C1(C)CCCC=CCCCCCCC(C)(NC(=O)[C@@H](NC(=O)[C@@H](NC(=O)[C@H](CCCCN)NC(=O)[C@@H]2CCCN2C(=O)[C@H](C)N)C(C)C)C(C)C)C(=O)N[C@@H](CC(C)C)C(=O)N[C@@H](CCCCN)C(=O)N[C@@H](CCCCN)C(=O)N[C@@H](C)C(=O)N[C@@H]([C@@H](C)O)C(=O)N[C@@H](C)C(=O)N1)C(=O)N[C@@H](CC(C)C)C(=O)N[C@@H](CO)C(=O)O (some centres unmarked) [IDP-S22, APKVVXLKKATAXILS] (H-APKVV[X1]LKKATA[ξαMeNle(6-ylidene)]ILS-OH; staple 6-13; N-terminus and C-terminus assumed)
[1]
  IC50: > 100 µM
[2]
  IC50: > 100 µM
[3]
  IC50: > 100 µM
